Assay results: patent US20130204033A1, “ANTIPROLIFERATIVE COMPOUNDS, CONJUGATES THEREOF, METHODS THEREFOR, AND USES THEREOF” (Medarex, Inc., priority 2009, published 2013)
Where two headings read alike, the source gives them in different places.

What was measured:
Type in all cases: cell-based, human
BT474 [1] = assay: 3H thymidine proliferation assay, BT474
Procedure: (§1) This example generally describes the procedures used to assay the antiproliferative activity of compounds of this invention or their conjugates. Human tumor cell lines were obtained from the American Type Culture Collection (ATCC), P.O. Box 1549, Manassas, Va. 20108, USA, and cultured according to instruction from the ATCC. Cells were seeded at 1.0×10^3 or 1.0×10^4 cells/well in 96-well plates for 3 h for ATP assays or ^3H thymidine assays, respectively. 1:3 serial dilutions of free (unconjugated) compounds or their conjugates were added to the wells. Plates were allowed to incubate for 24 to 72 h. The ^3H thymidine plates were pulsed with 1.0 μCi of ^3H-thymidine per well for the last 24 hours of the total incubation period, harvested, and read on a Top Count Scintillation Counter (Packard Instruments, Meriden, Conn.). ATP levels in the ATP plates were measured using the […]-GLO® Luminescent Cell Viability kit following the manufacturer's manual and read on a GLOMAX® 20/20 luminometer (both from Promega, Madison, Wis., USA). The EC50 values—the concentration at which an agent inhibits or reduces cell proliferation by 50% —were determined using PRISM™ software, version 4.0 (GraphPad Software, La Jolla, Calif., USA).
(§2) Using the ^3H thymidine or the ATP luminescence assay, or both, the activities of compounds of this invention were assayed against the following cancer cell lines: HCT-15 (colorectal cancer, multi-drug resistant (MDR)); Hep3B (liver cancer); LNCaP (prostate cancer, androgen receptor positive (AR^+)); MDA-MB-231 (breast cancer, estrogen receptor, progesterone receptor, and Her2 negative (triple negative)); A2058 (melanoma); U-87 MG (glioblastoma); NCI-H460 (NSCLC); A549 (NSCLC); HPAC (pancreatic cancer, primary); PC3 (prostate cancer, AR); BT474 (breast cancer, Her2 highly positive (Her2hi)); SKOV3 (ovarian cancer, Her2hi); 786-O (renal cancer); UO-31 (renal cancer, MDR); NCI-H740 (SCLC); DMS53 (SCLC); SK-BR3 (breast cancer, Her2hi); ZR-75 (breast cancer, estrogen receptor positive); OVCAR3 (ovarian cancer); HL-60 (APL); OVCAR8/Adr (ovarian cancer, MDR); CEM-Cl (ALL); Nomo-1 (AML); RPMI-8226 (MM)); Raji (lymphoma); SW-480 (colorectal cancer, metastatic); SW-620 (colorectal cancer); and H226 (lung cancer). (Not all compounds were assayed against all cell lines.)
(§3) Table 2 provides the data for proliferation assays using the ^3H thymidine method, with an incubation period of 72 h.

A2058 = assay: ATP luminescence proliferation assay, A2058
Procedure: as §1, §2
(§4) Table 3 provides the data for the ATP luminescence proliferation assays, with an incubation period of 48, 72, or 96 h, as noted.

DMS53 = assay: 3H thymidine proliferation assay, DMS53
Procedure: as §1, §2, §3

A549 = assay: ATP luminescence proliferation assay, A549
Procedure: as §1, §2, §4

BT474 [2] = assay: ATP luminescence proliferation assay, BT474
Procedure: as §1, §2, §4

HPAC = assay: 3H thymidine proliferation assay, HPAC
Procedure: as §1, §2, §3

NCI-H740 = assay: ATP luminescence proliferation assay, NCI-H740; settings: H740, 72 h incubation
Procedure: as §1, with “Calif., USA). […]” for “Calif., USA).”
as §4

NCI-H460 = assay: 3H thymidine proliferation assay, NCI-H460
Procedure: as §1, §2, §3

Hep3B = assay: 3H thymidine proliferation assay, Hep3B
Procedure: as §1, §2, §3

786-O = assay: 3H thymidine proliferation assay, 786-O
Procedure: as §1, §2, §3

LNCaP = assay: ATP luminescence proliferation assay, LNCaP
Procedure: as §1, §2, §4

OVCAR8 = assay: 3H thymidine proliferation assay, OVCAR8
Procedure: as §1, §2, §3

MDA-MB-231 = assay: ATP luminescence proliferation assay, MDA-MB-231
Procedure: as §1, §2, §4

[3] = Homo sapiens, BT-474, 3H thymidine method, 72 h incubation, read-out: EC50, BT474
[4] = Homo sapiens, ATP luminescence, A2058, 72 h incubation, read-out: EC50 A2058 (72 h)
[5] = Homo sapiens, DMS-53, 3H thymidine method, 72 h incubation, read-out: EC50, DMS53
[6] = Homo sapiens, ATP luminescence, A549, 48 h incubation, read-out: EC50 A549 (48 h)
[7] = Homo sapiens, BT-474, ATP luminescence, BT474, 72 h incubation, read-out: EC50 BT474 (72 h)
[8] = Homo sapiens, HPAC, 3H thymidine method, 72 h incubation, read-out: EC50, HPAC
[9] = Homo sapiens, NCI-H460, 3H thymidine method, 72 h incubation, read-out: EC50, NCI-H460
[10] = Homo sapiens, Hep3B, 3H thymidine method, 72 h incubation, read-out: EC50, Hep3B
[11] = Homo sapiens, 786-0, 3H thymidine method, 72 h incubation, read-out: EC50, 786-O
[12] = Homo sapiens, ATP luminescence, 72 h incubation, read-out: EC50 LNCaP (72 h)
[13] = Homo sapiens, OVCAR-8, 3H thymidine method, 72 h incubation, read-out: EC50, OVCAR8
[14] = Homo sapiens, ATP luminescence, MDA-MB-231, 72 h incubation, read-out: EC50 MDA-MB-231 (72 h)
[15] = Homo sapiens, BT-474, read-out: EC50, BT474, 3H thymidine method, 72 h incubation
[16] = Homo sapiens, A2058, 72 h, read-out: EC50 A2058 (72 h), ATP luminescence, A2058, 72 h incubation
[17] = Homo sapiens, DMS-53, read-out: EC50, DMS53, 3H thymidine method, 72 h incubation
[18] = Homo sapiens, A549, 48 h, read-out: EC50 A549 (48 h), ATP luminescence, A549, 48 h incubation
[19] = Homo sapiens, BT-474, 48 h, read-out: EC50 BT474 (48 h), ATP luminescence, BT474, 48 h incubation
[20] = Homo sapiens, HPAC, read-out: EC50, HPAC, 3H thymidine method, 72 h incubation
[21] = Homo sapiens, NCI-H460, read-out: EC50, NCI-H460, 3H thymidine method, 72 h incubation
[22] = Homo sapiens, Hep3B, read-out: EC50, Hep3B, 3H thymidine method, 72 h incubation
[23] = Homo sapiens, 786-0, read-out: EC50, 786-O, 3H thymidine method, 72 h incubation
[24] = Homo sapiens, 72 h, read-out: EC50 LNCaP (72 h), ATP luminescence, LNCaP, 72 h incubation
[25] = Homo sapiens, OVCAR-8, read-out: EC50, OVCAR8, 3H thymidine method, 72 h incubation
[26] = Homo sapiens, MDA-MB-231, 72 h, read-out: EC50 MDA-MB-231 (72 h), ATP luminescence, MDA-MB-231, 72 h incubation

Compound	EC50 (BT474 [1]; [3])	EC50 (A2058; [4])	EC50 (DMS53; [5])	EC50 (A549; [6])	EC50 (BT474 [2]; [7])	EC50 (HPAC; [8])	EC50 (NCI-H460; [9])	EC50 (Hep3B; [10])	EC50 (786-O; [11])	EC50 (LNCaP; [12])	EC50 (OVCAR8; [13])	EC50 (MDA-MB-231; [14])	EC50 (BT474 [1]; [15])	EC50 (A2058; [16])	EC50 (DMS53; [17])	EC50 (A549; [18])	EC50 (BT474 [2]; [19])	EC50 (HPAC; [20])	EC50 (NCI-H460; [21])	EC50 (Hep3B; [22])	other results
Nc1ccc(C(=O)Nc2ccc3[nH]c(C(=O)N4C[C@@H](CCl)c5c4cc(O)c4ccccc54)cc3c2)cc1 [CBI, reference compound]	1.2 nM	0.2 nM	1.5 nM	3 nM	5.5 nM	0.063 nM	0.042 nM	0.02 nM	0.035 nM	3.3 nM	0.16 nM	3.1 nM									EC50 (NCI-H740; Homo sapiens): 2.2 nM
CC[C@H](C)[C@H](NC(=O)[C@H]1CCCCN1C)C(=O)N(C)[C@H](C[C@@H](OC(C)=O)c1nc(C(=O)N[C@@H](Cc2ccc(N)cc2)CC(C)C(=O)O)cs1)C(C)C (some centres unmarked) [Compound 36]													> 100 nM	43 nM	> 100 nM	1.9 nM	~120 nM	83 nM	52 nM	39 nM	EC50 (786-O; [23]): > 100 nM; EC50 (LNCaP; [24]): > 300 nM; EC50 (OVCAR8; [25]): > 100 nM; EC50 (MDA-MB-231; [26]): 9.6 nM
CC[C@H](C)[C@H](NC(=O)[C@H]1CCCCN1C)C(=O)N(COC(=O)CC(C)C)[C@H](C[C@@H](OC(C)=O)c1nc(C(=O)N[C@@H](Cc2ccc(N)cc2)CC(C)C(=O)O)cs1)C(C)C (some centres unmarked) [Compound 54]													8.8 nM	1.4 nM	2 nM	3 nM	4.8 nM	0.83 nM	0.31 nM	0.3 nM	EC50 (786-O; [23]): 6.9 nM; EC50 (LNCaP; [24]): 11 nM; EC50 (OVCAR8; [25]): 2.1 nM; EC50 (MDA-MB-231; [26]): 5.6 nM
COc1cccc2c1C(=O)c1c(O)c3c(c(O)c1C2=O)C[C@@](O)(C(=O)CO)C[C@@H]3O[C@H]1C[C@H](N)[C@H](O)[C@H](C)O1 [Dox, doxorubicin, reference compound]	424 nM	101 nM	979 nM	149 nM	388 nM	126 nM	101 nM	44 nM	168 nM	592 nM	2040 nM	518 nM									
CC[C@H](C)[C@H](NC(=O)[C@H]1CCCCN1C)C(=O)N(COC(=O)CC(C)C)[C@H](C[C@@H](OC(C)=O)c1nc(C(=O)N[C@@H](Cc2ccccc2)C[C@H](C)C(=O)O)cs1)C(C)C [Tub D, tubulysin D, reference compound]																					EC50 (BT474 [1]; 3H thymidine method, 72 h incubation, read-out: EC50, BT474): 0.51 nM; EC50 (A2058; ATP luminescence, A2058, 72 h incubation, read-out: EC50 A2058 (72 h)): 0.0064 nM; EC50 (DMS53; 3H thymidine method, 72 h incubation, read-out: EC50, DMS53): 0.21 nM; EC50 (A549; ATP luminescence, A549, 48 h incubation, read-out: EC50 A549 (48 h)): 0.02 nM; EC50 (BT474 [2]; ATP luminescence, BT474, 72 h incubation, read-out: EC50 BT474 (72 h)): 0.021 nM; EC50 (HPAC; 3H thymidine method, 72 h incubation, read-out: EC50, HPAC): 0.015 nM; EC50 (NCI-H740): 0.022 nM; EC50 (NCI-H460; 3H thymidine method, 72 h incubation, read-out: EC50, NCI-H460): 0.032 nM; EC50 (Hep3B; 3H thymidine method, 72 h incubation, read-out: EC50, Hep3B): 0.022 nM; EC50 (786-O; 3H thymidine method, 72 h incubation, read-out: EC50, 786-O): 0.15 nM; EC50 (LNCaP; ATP luminescence, 72 h incubation, read-out: EC50 LNCaP (72 h)): 0.093 nM; EC50 (OVCAR8; 3H thymidine method, 72 h incubation, read-out: EC50, OVCAR8): 0.17 nM; EC50 (MDA-MB-231; ATP luminescence, MDA-MB-231, 72 h incubation, read-out: EC50 MDA-MB-231 (72 h)): 0.047 nM
